For test [1], the system named is Hexokinases I, II, and III (HK I-III, low Km hexokinases). The conditions noted are these: Table 1, HK I-III, cited from earlier work.
In test [2] the test system is Glucokinase (GK, hexokinase IV). The conditions noted are these: Table 1, GK, cited from earlier work.
The target of test [3] is T1, native (wild type) islet glucokinase (Rattus norvegicus, UniProt P17712).
T1 construct: Plasmids containing DNA encoding either intact islet glucokinase; expressed in transfected cells; host or cells: 293 human embryonic kidney cells, transient transfection, crude extract
T1 sequence (P17712 1-465): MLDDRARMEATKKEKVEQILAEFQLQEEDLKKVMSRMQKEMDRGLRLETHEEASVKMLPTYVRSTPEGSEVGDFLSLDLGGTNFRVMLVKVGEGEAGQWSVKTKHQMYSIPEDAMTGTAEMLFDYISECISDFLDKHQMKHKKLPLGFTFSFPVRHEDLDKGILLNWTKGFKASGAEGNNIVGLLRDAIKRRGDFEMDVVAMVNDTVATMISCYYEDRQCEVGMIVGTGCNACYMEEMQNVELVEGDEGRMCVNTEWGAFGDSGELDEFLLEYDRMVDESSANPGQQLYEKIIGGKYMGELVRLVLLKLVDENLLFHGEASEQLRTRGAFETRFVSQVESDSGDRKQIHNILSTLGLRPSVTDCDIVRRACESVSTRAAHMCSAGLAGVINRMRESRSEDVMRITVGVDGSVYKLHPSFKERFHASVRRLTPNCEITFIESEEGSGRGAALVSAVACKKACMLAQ
Kind of test: Radioisotopic glucose phosphorylating activity assay in extracts of transiently transfected 293 cells, with and without G6P. It is filed as biochemical. As to conditions: 10 mM unlabeled G6P, 3 and 20 mM glucose, 293 cell extracts. Here is the method: Plasmids containing DNA encoding either intact islet glucokinase, hexokinase I or one of the two hexokinase/glucokinase chimeras were introduced into the human embryonic kidney cell line 293, using Ca2 PO4 co-precipitation. After incubation with the plasmid DNA, cells were cultured for an additional 48 hours.
Assays were performed at 3 and 20 mM glucose. At the lower glucose concentration, hexokinase activity is maximal while glucokinase activity is very low. […] The assay was also performed in the presence and absence of 10 mM unlabeled glucose-6-phosphate (G6P).

Like-named read-outs stand apart in the source and are kept apart here.

For the molecule `OC[C@H]1OC(O)[C@H](O)[C@@H](O)[C@@H]1O` (some centres unmarked) [glucose], the Km in test [1] (read-out: Km glucose) is 20 to 130 µM; in test [2] (read-out: Km glucose), 5000 to 12000 µM. For the molecule `O=P(O)(O)OC[C@H]1OC(O)[C@H](O)[C@@H](O)[C@@H]1O` (some centres unmarked) [G-6-P, glucose-6-phosphate], the “effect of glucose-6-phosphate on glucose phosphorylating activity” value in test [3] is on record as “no significant effect”. As to `Nc1ncnc2c1ncn2[C@@H]1O[C@H](COP(=O)(O)OP(=O)(O)OP(=O)(O)O)[C@@H](O)[C@H]1O` [ATP], the Km was 200 to 500 µM in test [1] (read-out: Km ATP) and 500 µM in test [2] (read-out: Km ATP).
